From patent US20230045421A1 (priority 2018, published 2023)
Read-outs that look alike come from different tables or passages of the source.

Test system: HBV rcDNA
Test: HepDE19 assay with bDNA quantitation of HBV rcDNA
Assay type: cell-based, hepatitis B virus
Summary of the method: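 HepDE19 cells (HepG2-derived, Tet-regulated HBV replication) were deprived of tetracycline and then exposed to compounds for 7 days at 37 °C in 0.5% DMSO, 8-point titration from 25 μM. rcDNA was quantified by bDNA and EC50/EC90 came from 4-parameter fits. CC50 was measured by CellTiter-Glo ATP content on replicate plates after 4 days.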

[1] = Hepatitis B virus, HepDE19, HepDE19 assay, inhibition of formation of rcDNA, read-out: DE-19bDNA EC50
[2] = read-out: DE-19bDNA EC50, HepDE19 assay, inhibition of formation of relaxed circular DNA (rcDNA), bDNA quantitation
[3] = Hepatitis B virus, HepDE19, read-out: DE-19bDNA EC50 (μM), HepDE19 assay, inhibition of formation of relaxed circular DNA (rcDNA), bDNA quantitation
[4] = HepDE19 assay, inhibition of formation of rcDNA, read-out: DE-19bDNA EC50
[5] = HepDE19 assay, inhibition of formation of relaxed circular DNA (rcDNA), bDNA quantitation, read-out: DE-19bDNA EC50

Row | Structure (SMILES) | EC50 [4] [µM] | EC50 [5] [µM] | other results
1 | Cc1cc(NC(=O)N(C)[C@H](C)c2c[nH]c(=O)c3ccccc23)ccc1F [Compound 32, (R)-3-(4-Fluoro-3-methylphenyl)-1-methyl-1-(1-(1-oxo-1,2-dihydroisoquinolin-4-yl)ethyl)urea] |  |  | EC50 [1]: 0.03 µM
2 | CC(c1c[nH]c(=O)c2c(F)c(F)ccc12)N(C)C(=O)Nc1cccc(Cl)c1 (single isomer, unassigned) [Compound 461, 3-(3-Chlorophenyl)-1-(1-(7,8-difluoro-1-oxo-1,2-dihydroisoquinolin-4-yl)ethyl)-1-methylurea] |  |  | EC50 [2]: 0.011 µM
3 | CC(NC(=O)Nc1ccc(F)c(Cl)c1)c1c[nH]c(=O)c2c(F)c(F)ccc12 (single isomer, unassigned) [Compound 500, 1-(3-Chloro-4-fluorophenyl)-3-(1-(7,8-difluoro-1-oxo-1,2-dihydroisoquinolin-4-yl)ethyl)urea] |  |  | EC50 [3]: 3 µM
4 | CC(c1c[nH]c(=O)c2ccccc12)N(CC[C@@H](C)O)C(=O)Nc1ccc(F)c(Cl)c1 (single isomer, unassigned) [Compound 211] | 2.7 |  | 
5 | CC(c1c[nH]c(=O)c2cc(F)c(F)cc12)N(C)C(=O)NCc1ccc(F)c(Cl)c1 (single isomer, unassigned) [Compound 484, 3-(3-Chloro-4-fluorobenzyl)-1-(1-(6,7-difluoro-1-oxo-1,2-dihydroisoquinolin-4-yl)ethyl)-1-methylurea] |  | 14 | 
6 | CCN(Cc1cn(C)c(=O)c2ccccc12)C(=O)Nc1ccc(F)c(Cl)c1 [Compound 18, 3-(3-Chloro-4-fluorophenyl)-1-ethyl-1-((2-methyl-1-oxo-1,2-dihydroisoquinolin-4-yl)methyl)urea] |  |  | EC50 [1]: 0.26 µM
7 | CC(c1cnc(OCc2ncn(C)n2)c2ccccc12)N(C)C(=O)Nc1ccc(F)c(Cl)c1 (single isomer, unassigned) [Compound 132, 3-(3-Chloro-4-fluorophenyl)-1-methyl-1-(1-(1-((1-methyl-1H-1,2,4-triazol-3-yl)methoxy)isoquinolin-4-yl)ethyl)urea] | 0.06 |  | 
8 | O=C(NCc1c[nH]c(=O)c2ccccc12)Nc1ccc(F)c(Cl)c1 [Compound 8, 1-(3-Chloro-4-fluorophenyl)-3-((1-oxo-1,2-dihydroisoquinolin-4-yl)methyl)urea] |  |  | EC50 [1]: 6.8 µM
9 | CC(c1c[nH]c(=O)c2cc(F)c(F)cc12)N(C)C(=O)Nc1ccc(F)c(C#N)c1 (single isomer, unassigned) [Compound 429, 3-(3-Cyano-4-fluorophenyl)-1-(1-(6,7-difluoro-1-oxo-1,2-dihydroisoquinolin-4-yl)ethyl)-1-methylurea] |  | 0.01 | 
10 | CCN(C(=O)Nc1ccc(F)c(Cl)c1)C(c1cnc(OC)c2ccccc12)C(F)(F)F (single isomer, unassigned) [Compound 75, 3-(3-Chloro-4-fluorophenyl)-1-ethyl-1-(2,2,2-trifluoro-1-(1-methoxyisoquinolin-4-yl)ethyl)urea] |  |  | EC50 [1]: 4.5 µM
11 | CC(=O)N1CCC(CN(C(=O)Nc2ccc(F)c(Cl)c2)C(C)c2c[nH]c(=O)c3ccccc23)CC1 (single isomer, unassigned) [Compound 202, 1-((1-Acetylpiperidin-4-yl)methyl)-3-(3-chloro-4-fluorophenyl)-1-(1-(1-oxo-1,2-dihydroisoquinolin-4-yl)ethyl)urea] | 7.3 |  | 
12 | CC(c1c[nH]c(=O)c2ccccc12)N(Cc1nccs1)C(=O)Nc1ccc(F)c(Cl)c1 (single isomer, unassigned) [Compound 310, 3-(3-Chloro-4-fluorophenyl)-1-(1-(1-oxo-1,2-dihydroisoquinolin-4-yl)ethyl)-1-(thiazol-2-ylmethyl)urea] |  | 5.5 | 
13 | CCn1cc(C(C)N(C)C(=O)Nc2ccc(F)c(Cl)c2)c2ccccc2c1=O (single isomer, unassigned) [Compound 184, 3-(3-Chloro-4-fluorophenyl)-1-(1-(2-ethyl-1-oxo-1,2-dihydroisoquinolin-4-yl)ethyl)-1-methylurea] | 0.09 |  | 
14 | CC(c1c[nH]c(=O)c2cc(F)ccc12)N(CCS(N)(=O)=O)C(=O)Nc1ccc(F)c(Cl)c1 (single isomer, unassigned) [Compound 383, 2-(3-(3-Chloro-4-fluorophenyl)-1-(1-(7-fluoro-1-oxo-1,2-dihydroisoquinolin-4-yl)ethyl)ureido) ethane-1-sulfonamide] |  | 7 | 
15 | CC(C)CN(C(=O)Nc1ccc(F)cc1)C(C)c1c[nH]c(=O)c2c(F)cc(F)cc12 (single isomer, unassigned) [Compound 375, 1-(1-(6,8-Difluoro-1-oxo-1,2-dihydroisoquinolin-4-yl)ethyl)-3-(4-fluorophenyl)-1-isobutylurea] |  | 1.7 | 
16 | CC(c1c[nH]c(=O)c2ccccc12)N(CC[C@@H](C)O)C(=O)Nc1ccc(F)c(Cl)c1 (single isomer, unassigned) [Compound 212] | 0.02 |  | 

Row | Structure (SMILES) | EC50 [4] [µM] | EC50 [5] [µM] | other results
17 | CC(c1c[nH]c(=O)c2cc(F)c(F)cc12)N(C)C(=O)Nc1ccc(Cl)cc1 (single isomer, unassigned) [Compound 401, 3-(4-Chlorophenyl)-1-(1-(6,7-difluoro-1-oxo-1,2-dihydroisoquinolin-4-yl)ethyl)-1-methylurea] |  |  | EC50 [2]: 0.09 µM
18 | Cc1cc(NC(=O)N(C)C(C)c2c(C)[nH]c(=O)c3ccccc23)ccc1F (racemic) [Compound 230, 3-(4-Fluoro-3-methylphenyl)-1-methyl-1-(1-(3-methyl-1-oxo-1,2-dihydroisoquinolin-4-yl)ethyl)urea] |  |  | EC50 [1]: 0.12 µM
19 | CC(c1c[nH]c(=O)c2c(F)c(F)ccc12)N(C)C(=O)Nc1cc(Cl)c(F)c(Cl)c1 (single isomer, unassigned) [Compound 452, 3-(3,5-Dichloro-4-fluorophenyl)-1-(1-(7,8-difluoro-1-oxo-1,2-dihydroisoquinolin-4-yl)ethyl)-1-methylurea] |  | 0.047 | 
20 | CC(c1c[nH]c(=O)c2cc(F)c(F)cc12)N(C)C(=O)Nc1ccc2cc[nH]c2c1 (single isomer, unassigned) [Compound 485, 1-(1-(6,7-Difluoro-1-oxo-1,2-dihydroisoquinolin-4-yl)ethyl)-3-(1H-indol-6-yl)-1-methylurea] |  | 9.9 | 
21 | CCC(c1cnc(OC)c2ccccc12)N(CC)C(=O)Nc1ccc(F)c(Cl)c1 (single isomer, unassigned) [Compound 38, 3-(3-Chloro-4-fluorophenyl)-1-ethyl-1-(1-(1-methoxyisoquinolin-4-yl)propyl)urea] | 18 |  | 
22 | CCOc1ncc(CN(CC)C(=O)Nc2ccc(F)c(Cl)c2)c2ccccc12 [Compound 17, 3-(3-chloro-4-fluorophenyl)-1-((1-ethoxyisoquinolin-4-yl)methyl)-1-ethylurea] |  |  | EC50 [1]: 1.6 µM
23 | CC(c1c[nH]c(=O)c2ccccc12)N(Cc1c[nH]nn1)C(=O)Nc1ccc(F)c(Cl)c1 (single isomer, unassigned) [Compound 266, 1-((2H-1,2,3-Triazol-4-yl)methyl)-3-(3-chloro-4-fluorophenyl)-1-(1-(1-oxo-1,2-dihydroisoquinolin-4-yl)ethyl)urea] | 12 |  | 
24 | CC(c1c[nH]c(=O)c2c(F)cc(F)cc12)N(CCCO)C(=O)Nc1ccc(F)cc1 (single isomer, unassigned) [Compound 378, 1-(1-(6,8-Difluoro-1-oxo-1,2-dihydroisoquinolin-4-yl)ethyl)-3-(4-fluorophenyl)-1-(3-hydroxypropyl) urea] |  | 0.024 | 
25 | COc1ncc(C(C)N(CC2CC2)C(=O)Nc2ccc(F)c(Cl)c2)c2ccccc12 (single isomer, unassigned) [Compound 64, 3-(3-Chloro-4-fluorophenyl)-1-(cyclopropylmethyl)-1-(1-(1-methoxyisoquinolin-4-yl)ethyl)urea] | 0.12 |  | 
26 | CC(c1c[nH]c(=O)c2ccccc12)N(C[C@H]1CCCO1)C(=O)Nc1ccc(F)c(Cl)c1 (single isomer, unassigned) [Compound 155] | 7.7 |  | 
27 | CC(c1cn(C)c(=O)c2cc(F)c(F)cc12)N(C)C(=O)Nc1ccc(F)c(Cl)c1 (single isomer, unassigned) [Compound 341, 3-(3-Chloro-4-fluorophenyl)-1-(1-(6,7-difluoro-2-methyl-1-oxo-1,2-dihydroisoquinolin-4-yl)ethyl)-1-methylurea] |  | 0.011 | 
28 | CC(NC(=O)Nc1ccc(F)c(Cl)c1)c1c[nH]c(=O)c2cc(F)c(F)cc12 (centres unmarked) [Compound 480, 1-(3-Chloro-4-fluorophenyl)-3-(1-(6,7-difluoro-1-oxo-1,2-dihydroisoquinolin-4-yl)ethyl)urea] |  |  | EC50 [3]: 0.85 µM
29 | CC(c1cnc(-n2ccnn2)c2ccccc12)N(C)C(=O)Nc1ccc(F)c(Cl)c1 (single isomer, unassigned) [Compound 424, 1-(1-(1-(1H-1,2,3-Triazol-1-yl)isoquinolin-4-yl)ethyl)-3-(3-chloro-4-fluorophenyl)-1-methylurea] |  | 6.4 | 
30 | CC(c1cnc(C(=O)N(C)C)c2ccccc12)N(C)C(=O)Nc1ccc(F)c(Cl)c1 (single isomer, unassigned) [Compound 319, 4-(1-(3-(3-Chloro-4-fluorophenyl)-1-methylureido)ethyl)-N,N-dimethylisoquinoline-1-carboxamide] |  | 0.38 | 
31 | CC(c1c[nH]c(=O)c2ccccc12)N(C[C@@H]1CCCO1)C(=O)Nc1ccc(F)c(Cl)c1 (single isomer, unassigned) [Compound 160] | 23 |  | 
32 | CC(c1c[nH]c(=O)c2cc(F)c(F)cc12)N(CCS(N)(=O)=O)C(=O)Nc1ccc(F)cc1 (single isomer, unassigned) [Compound 387, 2-(1-(1-(6,7-Difluoro-1-oxo-1,2-dihydroisoquinolin-4-yl)ethyl)-3-(4-fluorophenyl)ureido)ethane-1-sulfonamide] |  | 0.04 | 
